Experimental findings from patent US9669112B2, “Animal model of neuronal injury” (The J. David Gladstone Institutes, priority 2012, dated 2017) are described below.

“Also recorded” adds a separate entry of the source. A value given as a limit tells only on which side of the number the result lay.

For experiment [1], the system named is wild-type mice. Nature of the experiment: Morris water maze after chronic intracerebroventricular infusion of fibrinogen. In kind it is in vivo. To be noted: ICV infusion 5 mg/ml, 14-day Alzet pump; tested 24 hours after last learning trial; vs ACSF. The procedure: Fibrinogen was delivered to the central nervous system (CNS) of wild-type mice by ICY. Briefly, fibrinogen (5 mg/ml) or artificial cerebrospinal fluid (ACSF), a control, was infused into the CNS of the mice using 14-day Alzet pumps through a cannula implanted in the right lateral ventricle. The concentration of the fibrinogen solution was selected based on its physiological range in the plasma. Five days after pump implantation, the mice were trained in the Morris water maze and tested after removal of the target platform 24 hours after the last learning trial. […] To control for visual discriminative ability, the same mice located a clearly visible black platform 2 h after the last trial.

Experiment [2] has as its system spinal cord. Nature of the experiment: Demyelination and microglia activation after stereotactic injection into the spinal cord. In kind it is in vivo, wild-type mice. To be noted: single injection at physiological concentrations; after 7 days. An excerpt: Either ACSF or fibrinogen was stereotactically injected at physiological concentrations into the spinal cord of wild-type mice (each Group n=3-4). […] The % area for IBA-1 staining indicates a percentage of the mean area of CD3 or IBA-1 immunoreactivity in the predefined area on spinal cord sections.

The test system of experiment [3] is dendritic spines. Nature of the experiment: Golgi staining of dendritic spines after stereotactic injection into the cortex. In kind it is in vivo. To be noted: 3 days later, compared to ACSF controls. The text has this:
Fibrinogen injection in the cortex reduces dendritic spine density. Dendritic spines are the major site of excitatory synaptic inputs in the brain (Nimchinsky E A, et al., Annu Rev Physiol. 64:313-353). Novel spine formation and pre-existing spine elimination reflect the structural consequences of dynamic changes in neuronal activity at the cellular level (Grutzendler J & Gan W B (2006) NeuroRx 3(4):489-496; Trachtenberg J T et al., (2002) Nature 420(6917):788-794; Grutzendler J et al. (2002) Nature 420(6917):812-816.). Thus, dynamic changes in spine numbers and morphology are considered the cellular mechanisms underlying memory and learning (Holtmaat A et al. (2006) Nature 441 (7096):979-983). To assess the effect of a local concentration of fibrinogen on spine morphology, we injected fibrinogen by stereotactic injection into the cortex, and the brains were examined 3 days later by Golgi staining. Fibrinogen reduced the density of dendritic spines by 33%, compared to ACSF controls (FIG. 4).

Experiment [4] relates to microglia. Nature of the experiment: Acute microglial responses in vivo after injection into the cortex with a glass microelectrode. Details: species or system Cx3cr1GFPI+ mice. The procedure:
To directly address whether fibrinogen alone was sufficient to trigger acute microglial responses in the CNS, fibrinogen was injected into the cortex of Cx3cr1GFPI+ mice using a glass microelectrode. Control electrodes were also used containing ACSF or albumin (5 mg/ml). Injection of […] of a 3-6 mg/ml fibrinogen solution, which approximates the physiological concentration of fibrinogen in plasma, caused rapid extension of microglial processes toward the tip of the electrode within […] of the injection. The size of the fibrin deposit remains unaltered, and the microglial response to fibrin persists for at least 6 hours.
The levels of microglia were quantified in vivo usingantibodies against IBA-1 (Ahmed Z, supra).

Experiment [5] deals with corpus callosum. Nature of the experiment: Demyelination and microglial activation after stereotactic injection into the corpus callosum. It counts as in vivo, mice. An excerpt:
Fibrinogen was stereotactically injected at physiological concentrations into the corpus callosum.
The experiment described in Example 4 was repeated using different mouse strains to investigate the possibility that the neuronal damage induced by fibrinogen was limited to mice with particular genetic backgrounds. […] This is particularly significant as in the traditional model for multiple sclerosis, experimental allergic encephalomyelitis (EAE), different strains of mice show varying degrees of susceptibility to EAE. EAE is a T cell-mediated autoimmune disease that can be induced in experimental animals by immunization with myelin antigens. The susceptibility to myelin antigens ranges from highly susceptible SJL/J mice to resistant B10.S mice.

Experiment [6] has as its system wild-type mice. Nature of the experiment: Contextual fear conditioning test after stereotactic injection in the dentate gyrus. In kind it is in vivo. To be noted: single injection 5 μg in dentate gyrus; day 7 post-injection; vs ACSF. The procedure:
To assess the effect of an increase in the local concentration of fibrinogen in a specific region of interest in the brain, mice received a single stereotactic injection of either 5 μg fibrinogen (1 μl of 5 mg/ml fibrinogen) or 1 μl control (ACSF) in the dentate gyrus. The effects on memory retrieval were assessed in the contextual fear conditioning test (Riley C et al., (2012) Expert review of neurotherapeutics 12(3):323-333.). Mice were placed in a novel environment and given a brief foot shock (training day; day 6 post injection). Memory was assessed by placing the mice in the same environment again one day after the training day (testing day, day 7 post-injection) and freezing (anxiety) behavior was recorded. Percentage of freezing is a direct measure of memory retrieval.

The test system of experiment [7] is neurons in the dentate gyrus. As to the kind of experiment: NeuN and IBA-1 antibody staining of hippocampus after injection in the dentate gyrus. It counts as in vivo, mice. Particulars: 5 μg in dentate gyrus, day 7 post injection.
Experiment [8] deals with microglia. As to the kind of experiment: Microglial activation 3 days after stereotactic injections of fibrinogen or plasma. In kind it is in vivo, mice. Particulars: 3 days after stereotactic injection; fibrinogen 6-10 mg/ml. The procedure:
FIG. 8 is a bar graph illustrating the quantification of microglial immunoreactivity from mouse brain sections 3 days after stereotactic injections of fibrinogen, ACSF or albumin protein control, or plasma isolated from wt, Fib-l-, Fib_390-396A mice (n=6 mice per condition). The bar graph represents the mean (*P<0.05, **P<0.01, one-way ANOVA).
Higher concentrations of fibrinogen were introduced (6-10 mg/ml), as well as ACSF, albumin, or plasma isolated from wt, Fib-l-, Fib_390-396A mice (n=6 mice per condition).

For the substance fibrinogen, in experiment [1], the “memory recall (crossings of the target platform, time spent in the target quadrant)” value is “impaired memory recall”. In addition, in experiment [2], the “demyelination in the spinal cord” value is recorded as “spontaneously induced demyelination”. The “microglia activation in the spinal cord (IBA-1 staining)” value in experiment [2] was “microglia activation”. The “reduction of density of dendritic spines” value in experiment [3] stood at 33%. Moreover, the “microglial responses (quantification)” value in experiment [4] (3-6 mg/ml, compared to ACSF or albumin) is “robust and statistically significant increase”. Also, the “persistence of microglial response to fibrin” value in experiment [4] (5-10 μl of 3-6 mg/ml solution into cortex) was “at least 6 hours”. Moreover, the “demyelination in the corpus callosum” value in experiment [5] (C57BL/6 mice (B6)) is reported as “significant demyelination”; in experiment [5] (SJL/J mice (SJL)) it was “significant demyelination”; in experiment [5] (single injection at physiological concentrations, after 7 days) it was “induced demyelination”. The “microglial activation in the corpus callosum” value in experiment [5] (C57BL/6 mice (B6)) and in experiment [5] (SJL/J mice (SJL)) was “microglial activation” in each case. For the same substance, the “time to induction of microglial activation” value in experiment [5] (corpus callosum injection) was ≤ 1 days. The “percentage of freezing (memory retrieval)” value in experiment [6] is “significant decrease; also recorded: impaired memory retrieval”. For the same substance, the “microglial activation (IBA-1 antibody staining)” value in experiment [7] (hippocampal tissue) is “increased microglial activation; also recorded: increase in IBA-1 staining”. For the same substance, in experiment [7] (hippocampus), the “NeuN immunoreactivity (neuronal loss)” value is on record as “dramatic decrease; also recorded: reduction in NeuN staining”. The “microglial activation 3 days after injection” value in experiment [8] was “formed a deposit that is surrounded by microglial processes”.
